Assays:
[1] = Absorbance of the saturated dye solution at 5 micron thickness (Beer-Lambert law, UV-vis); assay type: physicochemical; details: in decane; for Absorbance (theoretical), at 5 micron thickness: Table 8
Experimental: (§1) The absorbance is measured using a Hitachi UV3310 UV-vis spectrophotometer.

[2] = Solubility testing: saturation concentration of dye in non-polar solvent; details: for Saturation concentration (%): in decane
Experimental: A typical solubility test consists of one or more dyes dissolved in a suitable non-polar (hydrophobic) solvent, for example decane, at a concentration of 20% by weight for each dye. Samples are first vortex mixed for approximately 3 minutes and sonicated at 50° C. br 30 mins. They are then stirred for approximately 16 hours to ensure complete saturation. After stirring, samples are left to stand at room temperature for 2 hours before filtering through a 200 nm PTFE filter to give a saturated solution of dye in solvent.
The saturation concentrations and/or absorbance data for cells of varying thickness can be derived using the Beer-Lambert law:
Where A is absorbance (arbitrary unit) e=Molar extinction coefficient, c=Concentration (mol/l), l=path length (cm).
as §1

[3] = at the wavelength printed in the row, Table 6b
[4] = at the wavelength printed in the row, Table 5
[5] = at the wavelength printed in the row

With `CCCCCCCCN(CCCCCCCC)c1ccc(/N=N/c2cc(OCC(CC)CCCC)c(/N=N/c3ccc([N+](=O)[O-])cc3[N+](=O)[O-])cc2OCC(CC)CCCC)c(C)c1` (stereo not shown) [Dye 1a, 4-((E)-(4-((E)-(2,4-Dinitrophenyl)diazenyl)-2,5-bis(2-ethylhexyloxy)phenyl)diazenyl)-3-methyl-N,N-dioctylaniline] the “Absorbance (theoretical), at 5 um thickness” value ([1]; at the wavelength printed in the row, Table 7) was 0.188, the “Saturation wt % in decane” value ([2]; Table 1 Blue/Black Dyes) was 100 wt % and the “Saturation concentration (%)” value ([2]; Table 7) was 1.000%.

With `CCCCC(CC)COc1cc(/N=N/c2ccc([N+](=O)[O-])cc2[N+](=O)[O-])c(OCC(CC)CCCC)cc1/N=N/c1ccc(N(CC(CC)CCCC)CC(CC)CCCC)cc1C` (stereo not shown) [Dye 1b, 4-((E)-(4-((E)-(2,4-Dinitrophenyl)diazenyl)-2,5-bis(2-ethylhexyloxy)phenyl)diazenyl)-3-methyl-N,N-di-(2-ethylhexyl)aniline] the “Saturation wt % in decane” value ([2]; Table 1 Blue/Black Dyes) was 17.19 wt %.

For `CCCCC(CC)COc1cc(/N=N/c2ccc([N+](=O)[O-])cc2[N+](=O)[O-])c(OCC(CC)CCCC)cc1/N=N/c1ccc(N(CCC(C)CC(C)(C)C)CCC(C)CC(C)(C)C)cc1C` (stereo not shown) [Dye 1c, 4-((E)-(4-((E)-(2,4-Dinitrophenyl)diazenyl)-2,5-bis(2-ethylhexyloxy)phenyl)diazenyl)-3-methyl-N,N-d i-(3,5,5-trimethylhexyl)aniline], the “Saturation wt % in decane” value ([2]; Table 1 Blue/Black Dyes) was 3.53 wt %.

With `CCCCCCCCCCN(CCCCCCCCCC)c1ccc(/N=N/c2cc(OCC(CC)CCCC)c(/N=N/c3ccc([N+](=O)[O-])cc3[N+](=O)[O-])cc2OCC(CC)CCCC)c(C)c1` (stereo not shown) [Dye 1d, 4-((E)-(4-((E)-(2,4-Dinitrophenyl)diazenyl)-2,5-bis(2-ethylhexyloxy)phenyl)diazenyl)-3-methyl-N,N-di-n-decylaniline] the “Saturation wt % in decane” value ([2]; Table 1 Blue/Black Dyes) was 2.39 wt %.

In the case of `CCCCCCCCCCCCN(CCCCCCCCCCCC)c1ccc(/N=N/c2cc(OCC(CC)CCCC)c(/N=N/c3ccc([N+](=O)[O-])cc3[N+](=O)[O-])cc2OCC(CC)CCCC)c(C)c1` (stereo not shown) [Dye 1e, 4-((E)-(4-((E)-(2,4-Dinitrophenyl)diazenyl)-2,5-bis(2-ethylhexyloxy)phenyl)diazenyl)-3-methyl-N,N-di-n-dodecylaniline], the “Saturation wt % in decane” value ([2]; Table 1 Blue/Black Dyes) is reported as 5.17 wt %.

For `CCCCCCCCCCCCCCN(CCCCCCCCCCCCCC)c1ccc(/N=N/c2cc(OCC(CC)CCCC)c(/N=N/c3ccc([N+](=O)[O-])cc3[N+](=O)[O-])cc2OCC(CC)CCCC)c(C)c1` (stereo not shown) [Dye 1f, 4-((E)-(4-((E)-(2,4-Dinitrophenyl)diazenyl)-2,5-bis(2-ethylhexyloxy)phenyl)diazenyl)-3-methyl-N,N-di-n-tetradecylaniline], the “Saturation wt % in decane” value ([2]; Table 1 Blue/Black Dyes) was 15.2 wt %.

In the case of `CCCCCCCCCCCCN(CCC(C)CC(C)(C)C)c1ccc(/N=N/c2cc(OCC(CC)CCCC)c(/N=N/c3ccc([N+](=O)[O-])cc3[N+](=O)[O-])cc2OCC(CC)CCCC)c(C)c1` (stereo not shown) [Dye 1g, 4-((E)-(4-((E)-(2,4-Dinitrophenyl)diazenyl)-2,5-bis(2-ethylhexyloxy)phenyl)diazenyl)-3-methyl-N-dodecyl-N-(3,5,5-trimethylhexyl)aniline], the “Saturation wt % in decane” value ([2]; Table 1 Blue/Black Dyes) is reported as 16.67 wt %.

In the case of `CCCCCCCCCCCCCCCCCCN(CCCCCCCCCCCCCCCCCC)c1cc(NC(C)=O)c(/N=N/c2c(C#N)cc([N+](=O)[O-])cc2C#N)cc1OC` [Dye 8, N-(2-((2,6-Dicyano-4-nitrophenyl)diazenyl)-5-(dioctadecylamino)-4-methoxyphenyl)acetamide], the “Dye saturation concentration % in Decane as solvent” value [2] is reported as 0.003%, the “Dye saturation concentration % in (Decane/dye 2 as solvent)” value [2] is reported as 0.18% and the “Dye saturation concentration % in (Decane/dye 12 as solvent)” value [2] is reported as 0.18%. For the same compound, the “Saturation wt % in decane” value ([2]; Table 2 Cyan Dyes) was 0.003 wt %.

With `CCCCCCCCN(CCCCCCCC)c1ccc(/N=N/c2snc(C)c2C#N)c(NC(C)=O)c1` [Dye 11, N-(2-((4-Cyano-3-methylisothiazol-5-yl)diazenyl)-5-(dioctylamino)phenyl)acetamide] the “Dye saturation concentration % in Decane as solvent” value [2] was 0.19%, the “Dye saturation concentration % in (Decane/dye 2 as solvent)” value [2] was 0.62% and the “Dye saturation concentration % in (Decane/dye 12 as solvent)” value [2] was 0.41%. The “Saturation wt % in decane” value ([2]; Table 3 Magenta Dyes) was 0.19 wt %.

For `CCCCCCCCCCCCCCc1ccc(/N=N/c2c(C)c(C#N)c(=O)n(CC(CC)CCCC)c2O)cc1` (stereo not shown) [Dye 12, (E)-1-(2-Ethylhexyl)-6-hydroxy-4-methyl-2-oxo-5-((4-tetradecylphenyl)diazenyl)-1,2-dihydropyridine-3-carbonitrile], the “Absorbance at wavelength, at 5 micron thickness” value (“Absorbance at wavelength” below) [1, 3] was 0.332, the “Saturation wt % in decane” value ([2]; Table 4 Yellow Dyes) was 1.03 wt % and the “Saturation concentration (%)” value ([2]; Table 6b) was 1.03%.

In the case of `CCCCCCCCCCCCCCc1ccc(/N=N/c2c(C)cc(=O)n(CC(CC)CCCC)c2O)cc1` (stereo not shown) [Dye 13, (E)-1-(2-ethylhexyl)-6-hydroxy-4-methyl-5-((4-tetradecylphenyl)diazenyl)pyridin-2(1H)-one], the “Absorbance at wavelength” value [1, 3] is reported as 0.915, the “Saturation wt % in decane” value ([2]; Table 4 Yellow Dyes) is reported as 3.72 wt % and the “Saturation concentration (%)” value ([2]; Table 6b) is reported as 3.72%.

For `CCCCc1ccc(/N=N/c2ccc(N(CCCC)CCCC)cc2)cc1` [Dye 14], the “Saturation wt % in decane” value ([2]; Table 4 Yellow Dyes) was 9.95 wt %.

With `CCCCCCCCN(CCCCCCCC)c1ccc(/N=N/c2ccc([N+](=O)[O-])cc2)c(C)c1` [Dye 15, (E)-3-Methyl-4-((4-nitrophenyl)diazenyl)-N,N-dioctylaniline] the “Absorbance at wavelength” value [1, 4] was 2.765, the “Saturation wt % in decane” value ([2]; Table 4 Yellow Dyes) was 10.50 wt % and the “Saturation concentration (%)” value ([2]; Table 5) was 8.58%.

With `CCCCCNc1ccc(NCCCCC)c2c1C(=O)c1ccccc1C2=O` [Oil Blue N, reference compound] the “Absorbance at wavelength” value ([1]; 646 nm, Table 6a) was 0.0938, the “Absorbance at wavelength” value [1, 4] was 0.114 and the “Absorbance (theoretical), at 5 micron thickness” value [1, 5] was 0.0938. The “Dye saturation concentration % in Decane as solvent” value [2] was 0.62%, the “Dye saturation concentration % in (Decane/dye 2 as solvent)” value [2] was 1.34% and the “Dye saturation concentration % in (Decane/dye 12 as solvent)” value [2] was 1.14%. The “Saturation concentration (%)” value ([2]; Table 5) was 0.657%, the “Saturation concentration (%)” value ([2]; Table 6a) was 0.657% and the “Saturation concentration (%)” value ([2]; Table 8) was 0.66%.

For `Cc1ccc(C)c(N=Nc2cc(C)c(N=Nc3c(O)ccc4ccccc34)cc2C)c1` [Oil Red O, reference compound], the “Absorbance at wavelength” value [1, 4] was 0.2594, the “Dye saturation concentration % in Decane as solvent” value [2] was 1.17% and the “Dye saturation concentration % in (Decane/dye 2 as solvent)” value [2] was 1.91%. For the same compound, the “Dye saturation concentration % in (Decane/dye 12 as solvent)” value [2] was 1.49% and the “Saturation concentration (%)” value ([2]; Table 5) was 1.615%.

For `CCCCNc1ccc(NCCCC)c2c1C(=O)c1ccccc1C2=O` [Solvent Blue 35, reference compound], the “Absorbance at wavelength” value ([1]; 646 nm, Table 6a) was 0.0531, the “Absorbance at wavelength” value [1, 4] was 0.044 and the “Absorbance (theoretical), at 5 micron thickness” value [1, 5] was 0.0531. The “Dye saturation concentration % in Decane as solvent” value [2] was 0.33%, the “Dye saturation concentration % in (Decane/dye 2 as solvent)” value [2] was 0.69% and the “Dye saturation concentration % in (Decane/dye 12 as solvent)” value [2] was 0.62%. The “Saturation concentration (%)” value ([2]; Table 5) was 0.385%, the “Saturation concentration (%)” value ([2]; Table 6a) was 0.385% and the “Saturation concentration (%)” value ([2]; Table 8) was 0.385%.

For `Cc1ccccc1/N=N/c1ccc(/N=N/c2c(O)ccc3ccccc23)c(C)c1` [Solvent Red 24, reference compound], the “Absorbance at wavelength” value [1, 4] was 0.1579 and the “Saturation concentration (%)” value ([2]; Table 5) was 0.6%.
